In patent US20140135272A1, “NOVEL ZINC FINGER-LIKE PEPTIDE COMPOSITIONS AS POTENT AGENTS IN CANCER PREVENTION AND TREATMENT” (priority 2011, published 2014):

Legend:
Format in all cases: in vivo, nude mice
BCC cells = experiment: Example 2: peptide pre-injection plus boost injection, BCC cell inoculation, tumor volumes; settings: peptide 2 mM, 100 μl i.v. per week for 3 weeks before BCC inoculation; boost per week for 3 weeks 2 months later; vs H2O control
Experimental: (§1) In the following examples, 8-week nude mice were used as host subjects to perform in vivo experiments. The nude mice were placed in room temperature and suitable humidity, and supplied with sterile water and standard food for 2 consecutive weeks before performing experiments. Then, the nude mice were injected with zinc finger-like peptide and tumor cells. The detailed processes for the experiments are described as follows.
(§2) First, manually synthesized zinc finger-like peptide (Genemed Synthesis Inc., San Antonio, Tex., USA) was resuspended in degassed purified water to obtain 1-5 mM of zinc finger-like peptide solution (100 μl). Herein, the solution for suspending the zinc finger-like peptide is not particularly limited. Preferably, the zinc finger-like peptide is resuspended in degassed purified water, in order to prevent the self-polymerization of the zinc finger-like peptide and loss its ability to inhibit tumor cell growth.
(§3) In the present experimental group, zinc finger-like peptide with sequence shown in SEQ ID NO: 1 was injected into nude mice.
Nude mice were injected with an intravenous injection of peptide (2 mM, 100 μl PBS) via tail veins per week for 3 consecutive weeks, followed by inoculating BCC cells (2 million cells/100 μl PBS) at both the right and left flanks. 2 months later, boost injection of peptide was carried out per week for 3 consecutive weeks. […]

[1] = system: malignant melanoma B16F10; experiment: Example 3: peptide pre-injection, then malignant melanoma B16F10 inoculation, tumor volumes; settings: peptide 2 mM, 100 μl sterile water i.v. per week for 3 weeks before B16F10 inoculation; vs H2O control
Experimental: as §1, §2
Herein, zinc finger-like peptide with sequence shown in SEQ ID NO: 1 is injected into nude mice.
With this experimental group, nude mice received an intravenous injection of peptide (2 mM, 100 μl sterile water) via tail veins per week for 3 consecutive weeks, followed by inoculation of malignant melanoma B16F10 (2 million cells/100 μl PBS) at both the right and left flanks. The tumor volumes (mm^3) were observed daily during the whole experiment. […]

[2] = system: malignant melanoma B 16F10; experiment: Example 4: peptide variants pre-injected, then malignant melanoma B16F10 inoculation, tumor volumes and death; settings: peptide 2 mM, 100 μl i.v. per week for 2 weeks before B16F10 inoculation
Experimental: as §1, §2
Nude mice received an intravenous injection of peptide (2 mM, 100 μl) via tail veins per week for 2 consecutive weeks, followed by inoculating malignant melanoma B 16F10 (2 million cells/100 μl PBS) at both the right and left flanks. The tumor volumes (mm^3) were observed daily during the whole experiment.
as §3
In the present experimental group, zinc finger-like peptide with sequence shown in SEQ ID NO: 1, in which the fifth amino acid, serine was phosphorylated, and injected into nude mice.
In the present experimental group, zinc finger-like peptide with sequence shown in SEQ ID NO: 6 was injected into nude mice.
In the present experimental group, zinc finger-like peptide with sequence shown in SEQ ID NO: 6, in which the fourth amino acid serine was phosphorylated, and injected nude mice.
In the control group, H2O (100 μl) was injected into nude mice.

[3] = system: breast carcinoma MDA-MB-468; experiment: Example 7: peptide pre-injection, then breast carcinoma MDA-MB-468 inoculation, tumor volumes; settings: peptide 3 mM, 100 μl i.v. per week for 3 weeks before MDA-MB-468 inoculation; vs H2O control
Experimental: as §1, §2, §3
Nude mice were injected with an intravenous injection of peptide (3 mM, 100 μl) via tail veins per week for 3 consecutive weeks, followed by inoculating breast carcinoma MDA-MB-468 (2 million cells/100 μl medium) at both the right and left flanks. The tumor volumes (mm^3) were observed daily during the whole experiment. […]

[4] = system: malignant prostate cancer DU145 cells; experiment: Example 9: peptide pre-injection, malignant prostate cancer DU145 cells inoculated three months later, tumor volumes; settings: peptide 2 mM, 100 μl i.v. per week for 3 weeks, vs H2O control
Experimental: as §1, §2, §3
Nude mice were injected with an intravenous injection of peptide (2 mM, 100 μl) via tail veins per week for 3 consecutive weeks, followed by inoculating malignant prostate cancer DU145 cells (2 million cells/100 μl medium) at both the right and left flanks three months later. […]

[5] = system: prostatic epithelial cells PZ-HPV-7; experiment: Example 10: peptide pre-injection, then prostatic epithelial cells PZ-HPV-7 inoculation, tumor volumes; settings: peptide 2 mM, 100 μl i.v. per week for 3 weeks; PZ-HPV-7 inoculated on the 20th and 90th day; vs H2O control
Experimental: as §1, §2, §3
Nude mice were injected with an intravenous injection of peptide (2 mM, 100 μl) via tail veins per week for 3 consecutive weeks, followed by inoculating prostatic epithelial cells PZ-HPV-7 (2 million cells/100 μl medium) at both the right and left flanks on the 20th day and the 90th day. […]

[6] = system: malignant glioma U87-MG cells; experiment: Example 11: peptide pre-injection, malignant glioma U87-MG cells inoculated 1 month later, tumor volumes; settings: for growth and proliferation of tumor cells (tumor volumes): 100 μl i.v. per week for 3 weeks, U87-MG inoculated 1 month later, vs H2O control
Experimental: as §1, §2
The process of the present control group was the same as that of the experimental group, except that the zinc finger-like peptide of the experimental group was substituted with H2O (100 μl) in the present control group. The result is shown in FIG. 11A, which is a curve representing the tumor volumes of mice.
as §3
Nude mice were injected with an intravenous injection of peptide (2 mM, 100 μl) via tail veins per week for 3 consecutive weeks, followed by inoculating malignant glioma U87-MG cells (2 million cells/100 μl medium) at both the right and left flanks 1 month later. The tumor volumes (mm^3) were observed daily during the whole experiment. The result is shown in FIG. 11B, which is a curve representing the tumor volumes of mice.
The process of the present control group was the same as that of the experimental group 1, except that the concentration of the zinc finger-like peptide is 4 mM. The result is shown in FIG. 11C, which is a curve representing the tumor volumes of mice.

RRSSSCK [SEQ ID NO: 1, zinc finger-like peptide, manually synthesized]
tumor growth (tumor volumes) (BCC cells): can prevent and inhibit the growth of cancer cell
tumor growth (tumor volumes) [1]: can inhibit the growth of skin melanoma on nude mice
skin cancer completely cured after [2]: 115 days
tumor growth / activity on skin cancer treatment ([2]; vs H2O control): can effectively inhibit the growth of tumor cells
growth and proliferation of tumor cells (tumor volumes) [3]: the growth and proliferation of tumor cells were not observed
growth and proliferation of tumor cells (tumor volumes) [4]: the growth and proliferation of tumor cells were not observed
growth and proliferation of tumor cells (tumor volumes) [5]: the growth and proliferation of tumor cells were not observed
concentration dependence of suppression on tumor cell growth ([6]; 2 mM vs 4 mM peptide, U87-MG): the suppression on tumor cell growth was getting significant as the concentration of the zinc finger-like peptide increased
growth and proliferation of tumor cells (tumor volumes) ([6]; peptide 2 mM): slower than that observed in the control group
growth and proliferation of tumor cells (tumor volumes) ([6]; peptide 4 mM): slower than that observed in the control group
